Assay results published in patent US20250332112A1, “IONIZABLE CATIONIC LIPIDS FOR LIPID NANOPARTICLES” (GENEVANT SCIENCES GMBH, priority 2022, published 2025).

How the values were obtained:
[1] = Lipid clearance from liver over time after human OTC mRNA LNP (LC-MS); type: in vivo; conditions: IV 0.5 mg/kg human OTC mRNA LNP, male C57BL/6 mice (n = 4)
Procedure: (§1) LNP formulations encapsulating ornithine transcarbamylase mRNA were injected intravenously at the specified dose levels to male C57BL/6 mice (6-8 weeks old).
(§2) Liver tissues were treated with PBS and homogenized with a FastPrep machine, 3 cycles of 5 m/s×15 s. Homogenates from the PBS-treated control animals was pooled and used for standard curve preparation. Samples were extracted into a deep well plate with 250 μL of an internal suitability standard. Plates were centrifuged for 15 min at 4° C. and 2000 rpm. Analysis was performed using an Agilent 6520 QTOF coupled to an Agilent 1290 UHPLC, using reverse-phase LC separation. Quantitation of the ionizable lipid was by MS/MS against a calibration curve spiked into appropriately matched blank matrix. Calibration used a similar class of synthetic lipid as internal standard.
At various timepoints post-dose, lipid levels were assessed in the liver. Some novel ionizable lipids reported more rapid clearance rates compared to the benchmark (Table 19).

[2] = test system: luciferase activity in the liver; test: Luciferase activity in liver after intravenous luciferase mRNA LNP; type: in vivo; conditions: 0.5 mg/kg IV, 6 h post-IV administration, BALB/c mice (n = 4)
[3] = Lipid clearance from liver over time after EGFP mRNA LNP (LC-MS); type: in vivo; conditions: IV 0.5 mg/kg EGFP mRNA LNP, female BALB/c mice (n = 4)
Procedure: as §2
At various timepoints post-dose, lipid levels were assessed in the liver. Some novel ionizable lipids reported more rapid clearance rates compared to the benchmark (Table 33).

[4] = test system: human OTC expression in the liver; test: Dose response of human OTC mRNA LNP, OTC expression in liver (ELISA); type: in vivo; conditions: 24 h, male C57BL/6 mice (n = 4)
Procedure: as §1
Liver homogenates were prepared with PBS, Halt protease inhibitor cocktail and FastPrep homogenization, standardized to 2 mg/mL protein with a BCA Protein Assay, and then analyzed by ELISA. Briefly, samples were diluted with PBS and plated on Nunc Maxisorp plates. A standard curve using human […] protein was prepared from the naïve animal controls (vehicle). After 2 h incubation the plates were washed, and the primary antibody was added. After 1 h incubation, the secondary antibody was added and incubated for another hour. After washing, TMB Substrate was added for color development and the reaction was stopped with 2 N sulfuric acid. The plate was read at 450/570 OD.
At 24 h post-dose, the novel lipid formulations reported dose-dependent increases in human OTC expression in the liver (Table 15).

[5] = Parent ionizable lipid remaining in liver at 6 h after luciferase mRNA LNP (LC-MS); type: in vivo; conditions: 6 h after IV 0.5 mg/kg Luciferase mRNA LNP
[6] = test system: EGFP expression in the liver; test: EGFP expression in liver after intravenous EGFP mRNA LNP (ELISA); conditions: 0.5 mg/kg IV, 24 h post-IV administration, BALB/c mice (n = 4)
[7] = test system: EGFP expression in the liver; test: Dose response of EGFP mRNA LNP, EGFP expression in liver; type: in vivo; conditions: 24 h, female BALB/c mice (n = 4)
Procedure: At 24 h post-dose, the novel lipid formulations reported dose-dependent increases in EGFP expression in the liver (Table 32).

Question: Which “Parent ionizable lipid remaining in liver, Average” value (“Parent ionizable lipid remaining” below) ([1]; 0.25 h post-dose) does the source give for `CCCCC/C=C\CCCC(CCC/C=C\CCCCC)C(CCC/C=C\CCCCC)OC(=O)CCCCN(C)C` (centres unmarked) [Compound 13-B43, reference compound] here?
Answer: The value was 29.17 nmol/g liver.

Question: What about the “Parent ionizable lipid remaining” value ([1]; 1 h post-dose) of the same compound?
Answer: Its value is 46.37 nmol/g liver.

Question: What about the “Parent ionizable lipid remaining” value ([1]; 3 h post-dose) of the same compound?
Answer: Its value is 63.61 nmol/g liver.

Question: What about the “Parent ionizable lipid remaining” value ([1]; 6 h post-dose) of the same compound?
Answer: The value was 45.23 nmol/g liver.

Question: What about the “Parent ionizable lipid remaining” value ([1]; 24 h post-dose) of the same compound?
Answer: Its value is 40.01 nmol/g liver.

Question: And the “Parent ionizable lipid remaining” value ([1]; 168 h post-dose)?
Answer: Its value is 34.42 nmol/g liver.

Question: And the “Luc Activity” value ([2]; Table 8)?
Answer: Its value is 5.94E+07 pg/g liver.

Question: What about the “Luc Activity” value ([2]; Table 9) of the same compound?
Answer: Its value is 7.29E+07 pg/g liver.

Question: What about the “Luc Activity” value ([2]; Table 10) of the same compound?
Answer: The value was 7.04E+07 pg/g liver.

Question: And the “Luc Activity” value ([2]; Table 11)?
Answer: Its value is 6.86E+07 pg/g liver.

Question: And the “Luc Activity” value ([2]; Table 12)?
Answer: Its value is 7.83E+07 pg/g liver.

Question: What about the “Luc Activity” value ([2]; Table 13) of the same compound?
Answer: The value was 7.60E+07 pg/g liver.

Question: And the “Luc Activity” value ([2]; Table 14)?
Answer: Its value is 6.02E+07 pg/g liver.

Question: What about the “Parent ionizable lipid remaining” value ([3]; 0.25 h post-dose) of the same compound?
Answer: Its value is 29.8 nmol/g liver.

Question: And the “Parent ionizable lipid remaining” value ([3]; 1 h post-dose)?
Answer: Its value is 31.2 nmol/g liver.

Question: What about the “Parent ionizable lipid remaining” value ([3]; 3 h post-dose) of the same compound?
Answer: Its value is 40.2 nmol/g liver.

Question: And the “Parent ionizable lipid remaining” value ([3]; 6 h post-dose)?
Answer: Its value is 45.2 nmol/g liver.

Question: And the “Parent ionizable lipid remaining” value ([3]; 24 h post-dose)?
Answer: The value was 26.4 nmol/g liver.

Question: What about the “Parent ionizable lipid remaining” value ([3]; 168 h post-dose) of the same compound?
Answer: Its value is 25.6 nmol/g liver.

Question: What about the “Human OTC expression” value ([4]; 0.3 mg/kg IV) of the same compound?
Answer: The value was 908 ng hOTC/mg protein in liver.

Question: And the “Human OTC expression” value ([4]; 1 mg/kg IV)?
Answer: Its value is 6651 ng hOTC/mg protein in liver.

Question: And the “Human OTC expression” value ([4]; 3 mg/kg IV)?
Answer: The value was 12413 ng hOTC/mg protein in liver.

Question: And the “Parent ionizable lipid remaining” value ([5]; Table 16, female BALB/c mice (n = 4))?
Answer: Its value is 22.64 nmol/g liver.

Question: What about the “Parent ionizable lipid remaining” value ([5]; Table 17, female mice (n = 4)) of the same compound?
Answer: Its value is 43.87 nmol/g liver.

Question: And the “Parent ionizable lipid remaining” value ([5]; Table 18, female BALB/c mice (n = 4))?
Answer: The value was 63.32 nmol/g liver.

Question: What about the EGFP ([6]; Table 24) of the same compound?
Answer: The EGFP was 3.75E+07 pg/g liver.

Question: What about the EGFP ([6]; Table 25) of the same compound?
Answer: The EGFP was 9.74E+04 pg/g liver.

Question: And the EGFP ([6]; Table 26)?
Answer: The EGFP was 5.23E+07 pg/g liver.

Question: What about the EGFP ([6]; Table 27) of the same compound?
Answer: Its EGFP is 6.46E+07 pg/g liver.

Question: And the EGFP expression ([7]; 0.3 mg/kg IV)?
Answer: The EGFP expression was 3.65e+07 pg EGFP/g liver.

Question: And the EGFP expression ([7]; 1 mg/kg IV)?
Answer: Its EGFP expression is 1.88e+08 pg EGFP/g liver.

Question: What about the EGFP expression ([7]; 3 mg/kg IV) of the same compound?
Answer: Its EGFP expression is 4.4e+08 pg EGFP/g liver.
